Measurements reported in patent US9546129B2, “DTPA prodrugs, compositions thereof, and methods of using the same” (priority 2012, dated 2017).

Tests used:
[1] = Caco-2 transport study (apical to basolateral); type: in vitro ADME, human; conditions: human, Caco-2; apical to basolateral; read-out: Apparent permeation coefficient
Experimental: (§1) Caco-2 cells are a human colon epithelial cancer cell line that expresses transporters, efflux proteins and phase II enzymes and can be used to correlate cell permeability with drug absorption. In addition to determining the apparent permeability coefficient, an estimation of C2E2 metabolism during transport can be obtained. The aim of these preliminary studies was to evaluate a range of C2E2 concentrations (25, 50 & 100 μM) in order to determine a linear concentration range in which further studies could be performed.
(§2) Caco-2 cells (passage #39) were cultured in 75 cm^2T-flasks at 37° C. in a 5% CO2 constant humidity environment. The medium was replaced 3 times a week and the monolayers were sub-cultured to passage #41. When plating the cells 0.5 mL of a 120,000 cells/mL suspension was added to each apical (AP) compartment of the first and then 1.5 mL of cell culture medium was placed into the basolateral (BL) compartment of the Transwells®. Following 21-24 days on the Transwell® plates with media changes 2-3 times a week the Caco-2 transport studies were performed.
(§3) Prior to the transport experiments the transport medium was warmed to 37° C. Transport medium consisted of Hank's Balanced Salt Solution (HBSS) (1×) with calcium and magnesium 500 mL with the addition of 1M HEPES buffer (5 mL) and 1.25M D-Glucose solution in HBSS (10 mL). The cell culture medium was removed from the Transwells® to be used for the experiment and each well was washed twice with warm transport medium. The Transwells® were then pre-incubated for 30 min with transport medium. Finally, the trans-epithelial resistance (TEER) values for each Transwell® were measured using a voltohmmmeter and chopstick electrode. The TEER values should be in the range of 300-750 and should vary as little as possible. Dosing solutions were prepared in warm (37° C.) transport medium. […] The concentration of C2E2 was then determined by LC-MS/MS. The concentration of the dosing solutions was also measured to determine the concentration in the donor compartment at time zero. […]

Caco-2 cells = experiment: Caco-2 transport study (apical to basolateral); type: in vitro ADME, human
Experimental: as §1, §2, §3

## CCOC(=O)CN(CCN(CCN(CC(=O)O)CC(=O)OCC)CC(=O)O)CC(=O)O [C2E2, 6,9-bis(carboxymethyl)-3-(2-ethoxy-2-oxoethyl)-11-oxo-12-oxa-3,6,9-triazatetradecan-1-oic acid]
[1]
  Papp A→B at 120 min: 4.88 ×10⁻⁶ cm/s
Caco-2 cells; apical to basolateral, 25, 50 & 100 μM, two hours
  Percentage of dose detected in the receiving compartment: 18-22%
Caco-2 cells; from Caco-2 Papp using data of Shiyin Yee
  Predicted absorption in humans: 20-70%
